Results on three compounds are retold here after US11085081B2, “Methods and materials for determining pain sensitivity and predicting and treating related disorders” (The University of North Carolina at Chapel Hill, priority 2004, dated 2021).

For assay [1], the system named is Mouse macrophages (RAW 264.7). Kind of assay: In vitro cytokine measurement (real time PCR of transcripts) in macrophages. It counts as cell-based. On the procedure:
Cell growth media consisted of Dulbecco's modified Eagle's medium supplemented with 10% heat-inactivated fetal bovine serum (Sigma, St. Louis, Mo., U.S.A.) and 1× penicillin-streptomycin (Gibco, Carlsbad, Calif., U.S.A.). Cells were maintained in a humidified atmosphere of 95% air and 5% CO2. Total RNA was isolated using the RNeasy Mini Kit (Qiagen, Valencia, Calif., U.S.A.). RNA was then treated with 2 units of DNase I (Ambion, Austin, Tex., U.S.A.) at 37° C. for 30 min. Reverse transcription was performed according to the manufacturer's instructions. Briefly, the reverse transcription reaction mixture consisted of 1 μg DNase 1-treated RNA, 500 ng oligo-[…], 10 mM dNTP, 40 units RNasin (Promega, Madison, Wis., U.S.A.), and 200 units of reverse transcriptase SUPERSCRIPT IIITM (Invitrogen, Carlsbad, Calif., U.S.A.). cDNA synthesis was carried out at 50° C. for 1 hr followed by inactivation of reverse transcriptase at 70° C. for 15 min. […] Cell maintenance and 3T3-L1 preadipocyte differentiation is described herein below. For pharmacological experiments, cells were seeded at a density of 5×10^5 cells/well in a 12-well plate (Corning). Total RNA was isolated and reverse transcribed as described in the supplementary materials. […] TNFα, IL-1β, and IL-6 transcript levels were normalized to Glyceraldehyde-3-phosphate dehydrogenase (GAPDH).

The subject of assay [2] is 3T3-L1 adipocytes. In words: In vitro cytokine measurement (real time PCR of transcripts) in adipocytes. The class given is cell-based, mouse. On the procedure:
Cell growth media consisted of Dulbecco's modified Eagle's medium supplemented with 10% heat-inactivated fetal bovine serum (Sigma, St. Louis, Mo., U.S.A.) and 1× penicillin-streptomycin (Gibco, Carlsbad, Calif., U.S.A.). Cells were maintained in a humidified atmosphere of 95% air and 5% CO2.
Two days after reaching confluence in growth media, adipogenesis was induced by incubating cells in growth media containing 0.25 μM dexamethasone (Sigma), 0.5 mM IBMX (Sigma), and 1 μM insulin (Sigma). After an additional 2 days in growth media containing 1 μM insulin, cells were grown for 6-8 days in normal growth media.
Total RNA was isolated using the RNeasy Mini Kit (Qiagen, Valencia, Calif., U.S.A.). RNA was then treated with 2 units of DNase I (Ambion, Austin, Tex., U.S.A.) at 37° C. for 30 min. Reverse transcription was performed according to the manufacturer's instructions. Briefly, the reverse transcription reaction mixture consisted of 1 μg DNase 1-treated RNA, 500 ng oligo-dT12-18, 10 mM dNTP, 40 units RNasin (Promega, Madison, Wis., U.S.A.), and 200 units of reverse transcriptase SUPERSCRIPT III™ (Invitrogen, Carlsbad, Calif., U.S.A.). cDNA synthesis was carried out at 50° C. for 1 hr followed by inactivation of reverse transcriptase at 70° C. for 15 min.
Mouse macrophages (RAW 264.7) and […] preadipocytes (3T3-L1) were obtained from the University of North Carolina Tissue Culture Facility. Cell maintenance and 3T3-L1 preadipocyte differentiation is described herein below. For pharmacological experiments, cells were seeded at a density of 5×10^5 cells/well in a 12-well plate (Corning). Total RNA was isolated and reverse transcribed as described in the supplementary materials. TNFα, IL-1β, and IL-6 transcripts were quantitated in quadruplicate by real time polymerase chain reaction using TAQMAN® Gene Expression Assays (Applied Biosystems, Foster City, Calif., U.S.A.) in an ABI PRISM 7000 Sequence Detection System. TNFα, IL-1β, and IL-6 transcript levels were normalized to Glyceraldehyde-3-phosphate dehydrogenase (GAPDH).

Assay [3] concerns Sprague-Dawley rats. In words: Mechanical and thermal pain behavior testing (von Frey monofilaments, radiant heat). It counts as in vivo, rat. The settings on record: for blockade of OR486-induced hyperalgesia / heightened pain sensitivity: antagonist i.p. prior to OR486; for paw withdrawal latency to radiant heat after OR486, selective βAR antagonists: i.p. 10 min prior to OR486, ICI118,551 5.0 mg/kg; for paw withdrawal latency to radiant heat after OR486, selective βAR antagonists / paw withdrawal frequency to mechanical stimuli after OR486, selective βAR antagonists / paw withdrawal threshold to mechanical stimuli after OR486, selective βAR antagonists: SR59230A 5 or 50 mg/kg, betaxolol 0.1, 1.0, 10 mg/kg, relative to vehicle prior to OR486; for paw withdrawal frequency to mechanical stimuli after OR486, selective βAR antagonists / paw withdrawal threshold to mechanical stimuli after OR486, selective βAR antagonists: i.p. 10 min prior to OR486, ICI118,551 0.5 or 5.0 mg/kg; for paw withdrawal frequency to mechanical stimuli, antagonist in the absence of OR486 / paw withdrawal latency to radiant heat, antagonist in the absence of OR486 / paw withdrawal threshold to mechanical stimuli, antagonist in the absence of OR486: i.p. 10 min prior to vehicle, phentolamine 3, propranolol 3, SCH23390 0.2, spiperone 0.2, betaxolol 1.0, ICI118,551 0.5, SR59230A 5 mg/kg, relative to vehicle. On the procedure:
Rats were placed in plexiglass cages positioned over an elevated perforated stainless steel platform and habituated to the environment for 15-25 min prior to testing. Paw withdrawal threshold to punctate mechanical stimulation was assessed using the up-down method of Chaplan et al. (1994). A series of nine calibrated filaments (with bending forces of 0.40, 0.68, 1.1, 2.1, 3.4, 5.7, 8.4, 13.2, and 25.0 g; Sammons Preston Rolyan, Bolingbrook, Ill., U.S.A.) with approximately equal logarithmic spacing between stimuli (Mean±SEM: 0.232±0.04 units) were presented to the hind paw in successive order, whether ascending or descending. Filaments were positioned in contact with the hind paw for a duration of 3 s or until a withdrawal response occurred. Testing was initiated with the middle hair of the series (3.4 g). In the absence of a paw withdrawal response, an incrementally stronger filament was presented and in the event of a paw withdrawal, an incrementally weaker filament was presented. After the initial response threshold was crossed, this procedure was repeated four times in order to obtain a total of six responses in the immediate vicinity of the threshold. The presence of paw withdrawal (X) and absence of withdrawal (O) was noted together with the terminal filament used in the series of six responses. The 50% g threshold=(10^[Xf+kδ])/10,000, where Xf=value (in log units) of the final von Frey hair used; k=tabular value of pattern of positive (X) and negative (O) responses, and δ=mean difference (in log units) between stimuli.
Immediately following determination of the response threshold, paw withdrawal frequency (%) to punctate mechanical stimulation was assessed. A von Frey monofilament with a calibrated bending force of 25 g was presented to the hind paw 10 times for a duration of 1 s with an interstimulus interval of approximately 1 s. Mechanical hyperalgesia was defined as an increase in the percentage frequency ([# of paw withdrawals/10]×100) of paw withdrawal evoked by stimulation with von Frey monofilaments.
Thermal hyperalgesia was evaluated using the radiant heat method of Hargreaves et al. (1988) in the same animals evaluated for responsiveness to von Frey monofilaments. Radiant heat was presented through the floor of a finely perforated stainless steel platform to the midplantar region of the hind paw.
After establishing stable baseline responsiveness to mechanical and thermal stimuli, separate groups of rats received intraperitoneal injections of OR486 (30 mg/kg i.p.; N=8) or vehicle (N=8) one hour prior to behavioral testing. Responsiveness to von Frey filaments was reassessed at 30 min intervals for 2 hours. Paw withdrawal latencies to radiant heat were subsequently assessed at 2.5 hours into the testing procedure. Twenty-four hours later, baseline responsiveness to mechanical and thermal stimuli was reestablished. Animals received OR486 (30 mg/kg i.p.) or vehicle (consistent with the previous day). Thirty minutes following administration of drug or vehicle, separate groups of rats received intraplantar carrageenan (N=4 per group) or saline (N=4 per group). Responsiveness to von Frey filaments was reassessed at 30 min intervals for 2 hours following the induction of inflammation. Paw withdrawal latencies to radiant heat were subsequently assessed at 2.5 hours post carrageenan.
Rats were handled and habituated to the testing environment 2-3 days prior to establishing baseline responsiveness. On test days, rats were placed in plexiglass cages positioned over an elevated perforated stainless steel platform and habituated to the environment for 15-20 minutes prior to testing. Paw withdrawal threshold to punctate mechanical stimulation was assessed using the up-down method of Chaplan (Chaplan et al. (1994)). […]

The subject of assay [4] is TNFα, IL-1β, and IL-6. In words: In vivo plasma cytokine measurement (ELISA). On the set-up: species or system rat. The settings on record: rats; ICI118,551 or SR59230A prior to OR486, low, middle and high dose pooled; relative to vehicle prior to OR486. On the procedure: Blood was centrifuged and plasma separated from red blood cells. Plasma IL-6 was measured in duplicate using enzyme-linked immunosorbant assay (ELISA) kits from R&D systems (Minneapolis, Minn., U.S.A.). Plasma TNFα and IL-1β were measured in duplicate by the University of North Carolina Proteomics Ilmmunotechnologies Core using ELISA kits from Biosource (Camarillo, Calif., U.S.A.) and the National Institute for Biological Standards and Control (UK), respectively.

Where [5] appears, read: salmeterol 0.5 μM, 1 hr treatment, normalized to GAPDH.
Setting [6] is: pretreatment 30 min: betaxolol 0.3 μM, ICI118,551 0.3 μM, SR59230A 0.1 μM, then salmeterol 0.5 μM 1 hr.

Regarding `OCc1cc(C(O)CNCCCCCCOCCCCc2ccccc2)ccc1O` (stereo not drawn) [salmeterol], in assay [1] (setting [5]), the “increase in IL-1β mRNA levels in macrophages” value is 38 fold and the “increase in IL-6 mRNA levels in macrophages” value was determined as 6.5 fold. In addition, in assay [2] (salmeterol 0.5 μM or CL316243 0.3 μM, 1 hr treatment, normalized to GAPDH), the “increase in IL-6 mRNA levels in adipocytes” value came to 8 fold. The “increase in TNFα mRNA levels in adipocytes” value in assay [2] (setting [5]) stood at 6 fold.
On to `Cc1ccc(OCC(O)C(C)NC(C)C)c2c1CCC2` (single isomer, unassigned; (-)) [ICI118,551, (−)-1-(2,3-[dihydro-7-methyl-1H-inden-4-yl]oxy)-3-([1-methylethyl]-amino)-2-butanol], for which, in assay [3], the “blockade of OR486-induced hyperalgesia / heightened pain sensitivity” value was “partially blocked”; the “paw withdrawal latency to radiant heat after OR486, selective βAR antagonists” value is reported as “increased paw withdrawal latency”; the “paw withdrawal frequency to mechanical stimuli after OR486, selective βAR antagonists” value is listed as “decreased paw withdrawal frequency”; the “paw withdrawal threshold to mechanical stimuli after OR486, selective βAR antagonists” value was “increased paw withdrawal threshold”. In assay [3], the “paw withdrawal frequency to mechanical stimuli, antagonist in the absence of OR486” value was “failed to affect”; the “paw withdrawal latency to radiant heat, antagonist in the absence of OR486” value was “failed to affect”; the “paw withdrawal threshold to mechanical stimuli, antagonist in the absence of OR486” value is “failed to affect”. Moreover, in assay [4], the “levels of IL-1β after OR486, selective β2 or β3 antagonist” value is “decreased levels”; the “levels of IL-6 after OR486, selective β2 or β3 antagonist” value is listed as “decreased levels”; the “levels of TNFα after OR486, selective β2 or β3 antagonist” value was “decreased levels”. Further, the “blockade of salmeterol-induced increase in macrophage IL-1β and IL-6 transcript levels” value in assay [1] (setting [6]) is “completely blocked”. Further, the “blockade of salmeterol-induced increase in adipocyte TNFα and IL-6 transcript levels” value in assay [2] (setting [6]) is listed as “completely blocked”.
Regarding `CCc1ccccc1OC[C@@H](O)CN[C@H]1CCCc2ccccc21` [SR59230A, (1-(2-ethylphenoxy)-3-[[(1S)-1,2,3,4-tetrahydro-1-naphthalenyl]amino]-(2S)-2-propanol)], in assay [3], the “blockade of OR486-induced hyperalgesia / heightened pain sensitivity” value is reported as “partially blocked”; the “paw withdrawal latency to radiant heat after OR486, selective βAR antagonists” value was “increased paw withdrawal latency”; the “paw withdrawal frequency to mechanical stimuli after OR486, selective βAR antagonists” value is “decreased paw withdrawal frequency”; the “paw withdrawal threshold to mechanical stimuli after OR486, selective βAR antagonists” value is “increased paw withdrawal threshold”. For the same compound, in assay [3], the “paw withdrawal frequency to mechanical stimuli, antagonist in the absence of OR486” value is “failed to affect”; the “paw withdrawal latency to radiant heat, antagonist in the absence of OR486” value is recorded as “failed to affect”; the “paw withdrawal threshold to mechanical stimuli, antagonist in the absence of OR486” value is recorded as “failed to affect”. Besides, in assay [4], the “levels of IL-1β after OR486, selective β2 or β3 antagonist” value is given as “decreased levels”; the “levels of IL-6 after OR486, selective β2 or β3 antagonist” value is given as “decreased levels”; the “levels of TNFα after OR486, selective β2 or β3 antagonist” value was “decreased levels”. Besides, in assay [2] (pretreatment 30 min: betaxolol 0.3 μM, ICI118,551 0.3 μM, SR59230A 0.1 μM, then CL316243 0.3 μM 1 hr), the “blockade of CL316243-induced increase in adipocyte IL-6 transcript levels” value is “completely blocked”.
